Laboratory results taken from ChEMBL document CHEMBL3045129, “Synthesis and anti-inflammatory activity of some pyrazole derivatives” (Med Chem Res, 2012).

How the values were obtained:
Rattus norvegicus [1] = assay: Anti-inflammatory activity inRattus norvegicus albino (rat) assessed as inhibition of carrageenan-induced paw edema at 100 mg/kg, po administered 3 hr prior challenge measured after 1 hr post challenge; assay type: functional
Rattus norvegicus [2] = assay: Anti-inflammatory activity inRattus norvegicus albino (rat) assessed as inhibition of carrageenan-induced paw edema at 100 mg/kg, po administered 2 hr prior challenge measured after 1 hr post challenge; assay type: functional
Rattus norvegicus [3] = assay: Anti-inflammatory activity inRattus norvegicus albino (rat) assessed as inhibition of carrageenan-induced paw edema at 100 mg/kg, po administered 1 hr prior challenge measured after 1 hr post challenge; assay type: functional
Rattus norvegicus [4] = assay: Toxicity inRattus norvegicus albino (rat) assessed as ulcerogenicity at 100 mg/kg, po measured after 1 hr; assay type: organism-based; parameters: dose 100 mg/kg, route oral; details: in vivo

Question: How did the inhibition in vivo at 100 mg/kg (Rattus norvegicus [1]) turn out when Cc1cc(-c2ccc(Cl)cc2)n(Cc2n[nH]c(=S)o2)n1 was run?
Answer: 39.2%

Question: What about the inhibition in vivo at 100 mg/kg (Rattus norvegicus [2]) of the same molecule?
Answer: 31.2%

Question: What about the inhibition in vivo at 100 mg/kg (Rattus norvegicus [3]) of the same molecule?
Answer: 15.4%

Question: Which results are given for Cc1cc(-c2ccc(Cl)cc2)n(-c2ccc(S(N)(=O)=O)cc2)n1?
Answer: UI (Rattus norvegicus [4]): 5.2; inhibition in vivo at 100 mg/kg (Rattus norvegicus [1]): 62.5%; inhibition in vivo at 100 mg/kg (Rattus norvegicus [2]): 49.8%; inhibition in vivo at 100 mg/kg (Rattus norvegicus [3]): 37.2%

Question: Which results are given for Cc1cc(-c2ccc(Cl)cc2)n(-c2ccc(S(=O)(=O)Nc3nccs3)cc2)n1?
Answer: inhibition in vivo at 100 mg/kg (Rattus norvegicus [1]): 62%; inhibition in vivo at 100 mg/kg (Rattus norvegicus [2]): 44.3%; inhibition in vivo at 100 mg/kg (Rattus norvegicus [3]): 34.1%

Question: With Cc1cc(C)n(Cc2n[nH]c(=S)o2)n1 as the molecule, how does the inhibition in vivo at 100 mg/kg (Rattus norvegicus [1]) read?
Answer: 34.9%

Question: And the inhibition in vivo at 100 mg/kg (Rattus norvegicus [2])?
Answer: 21.5%

Question: What about the inhibition in vivo at 100 mg/kg (Rattus norvegicus [3]) of the same molecule?
Answer: 14.4%

Question: With Cc1cc(-c2ccccc2)n(Cc2n[nH]c(=S)o2)n1 as the molecule, how does the inhibition in vivo at 100 mg/kg (Rattus norvegicus [1]) read?
Answer: 48.7%

Question: And the inhibition in vivo at 100 mg/kg (Rattus norvegicus [2])?
Answer: 34.2%

Question: And the inhibition in vivo at 100 mg/kg (Rattus norvegicus [3])?
Answer: 26.3%

Question: How did the inhibition in vivo at 100 mg/kg (Rattus norvegicus [1]) turn out when Cc1cccc(NC(=S)NNC(=O)Cn2nc(C)cc2C)c1 was run?
Answer: 40.8%

Question: What about the inhibition in vivo at 100 mg/kg (Rattus norvegicus [2]) of the same molecule?
Answer: 22.9%

Question: And the inhibition in vivo at 100 mg/kg (Rattus norvegicus [3])?
Answer: 12.3%

Question: What does the source list for COc1ccc(NC(=S)NNC(=O)Cn2nc(C)cc2C)cc1?
Answer: inhibition in vivo at 100 mg/kg (Rattus norvegicus [1]): 46.4%; inhibition in vivo at 100 mg/kg (Rattus norvegicus [2]): 41.4%; inhibition in vivo at 100 mg/kg (Rattus norvegicus [3]): 30.3%

Question: Which UI (Rattus norvegicus [4]) does the source give for Cc1cc(C)n(CC(=O)NNC(=S)Nc2ccc([N+](=O)[O-])cc2)n1 here?
Answer: 18.6

Question: What about the inhibition in vivo at 100 mg/kg (Rattus norvegicus [1]) of the same molecule?
Answer: 62.7%

Question: What about the inhibition in vivo at 100 mg/kg (Rattus norvegicus [2]) of the same molecule?
Answer: 44.4%

Question: And the inhibition in vivo at 100 mg/kg (Rattus norvegicus [3])?
Answer: 36.1%

Question: Which results are given for Cc1cccc(-n2c(Cn3nc(C)cc3C)n[nH]c2=S)c1?
Answer: inhibition in vivo at 100 mg/kg (Rattus norvegicus [1]): 33.4%; inhibition in vivo at 100 mg/kg (Rattus norvegicus [2]): 22.7%; inhibition in vivo at 100 mg/kg (Rattus norvegicus [3]): 13.2%

Question: Which results are given for Cc1cc(C)n(Cc2n[nH]c(=S)n2-c2ccc([N+](=O)[O-])cc2)n1?
Answer: inhibition in vivo at 100 mg/kg (Rattus norvegicus [1]): 36.4%; inhibition in vivo at 100 mg/kg (Rattus norvegicus [2]): 27.1%; inhibition in vivo at 100 mg/kg (Rattus norvegicus [3]): 16.6%

Question: What does the source list for Cc1cc(C)n(Cc2nnc(Nc3ccc([N+](=O)[O-])cc3)s2)n1?
Answer: UI (Rattus norvegicus [4]): 15.6; inhibition in vivo at 100 mg/kg (Rattus norvegicus [1]): 64.9%; inhibition in vivo at 100 mg/kg (Rattus norvegicus [2]): 50%; inhibition in vivo at 100 mg/kg (Rattus norvegicus [3]): 37.5%

Question: Which results are given for CCCNc1nnc(Cn2nc(C)cc2-c2ccccc2)s1?
Answer: inhibition in vivo at 100 mg/kg (Rattus norvegicus [1]): 54.1%; inhibition in vivo at 100 mg/kg (Rattus norvegicus [2]): 42.2%; inhibition in vivo at 100 mg/kg (Rattus norvegicus [3]): 26.9%

Question: For Cc1cc(-c2ccc(Cl)cc2)n(Cc2nnc(Nc3ccc([N+](=O)[O-])cc3)s2)n1, which inhibition in vivo at 100 mg/kg (Rattus norvegicus [1]) is on record?
Answer: 61.1%

Question: And the inhibition in vivo at 100 mg/kg (Rattus norvegicus [2])?
Answer: 45%

Question: What about the inhibition in vivo at 100 mg/kg (Rattus norvegicus [3]) of the same molecule?
Answer: 32.8%

Question: What does the source list for Cc1ccc(-c2cc(C(F)(F)F)nn2-c2ccc(S(N)(=O)=O)cc2)cc1 [CELECOXIB]?
Answer: inhibition in vivo at 100 mg/kg (Rattus norvegicus [1]): 63.8%; inhibition in vivo at 100 mg/kg (Rattus norvegicus [2]): 45.8%; inhibition in vivo at 100 mg/kg (Rattus norvegicus [3]): 31.4%

Question: For COc1ccc2c(c1)c(CC(=O)O)c(C)n2C(=O)c1ccc(Cl)cc1 [INDOMETHACIN], which UI (Rattus norvegicus [4]) is on record?
Answer: 20.4

Question: And the inhibition in vivo at 100 mg/kg (Rattus norvegicus [1])?
Answer: 60.8%

Question: What about the inhibition in vivo at 100 mg/kg (Rattus norvegicus [2]) of the same molecule?
Answer: 40.1%

Question: What about the inhibition in vivo at 100 mg/kg (Rattus norvegicus [3]) of the same molecule?
Answer: 31.5%
